The target in assay [1] is Acetylcholinesterase (Electrophorus electricus, UniProt O42275).
Description: Inhibition of electric eel AChE using acetylthiocholine iodide as substrate after 5 mins by Ellman's method
Assay [2] concerns the target Cholinesterase (Equus caballus, UniProt P81908).
Description: Inhibition of equine serum BChE using butyrylthiocholine iodide as substrate after 5 mins by Ellman's method
The target in assay [3] is Cholinesterase (Equus caballus) (UniProt P81908). Briefly: Mixed-type inhibition of equine serum BChE using butyrylthiocholine iodide as substrate by Lineweaver-Burk reciprocal plot analysis.

Active and inactive are the calls of the source. The rule behind the calls is not given here.

Cholinesterase, sequence (P81908 whole entry): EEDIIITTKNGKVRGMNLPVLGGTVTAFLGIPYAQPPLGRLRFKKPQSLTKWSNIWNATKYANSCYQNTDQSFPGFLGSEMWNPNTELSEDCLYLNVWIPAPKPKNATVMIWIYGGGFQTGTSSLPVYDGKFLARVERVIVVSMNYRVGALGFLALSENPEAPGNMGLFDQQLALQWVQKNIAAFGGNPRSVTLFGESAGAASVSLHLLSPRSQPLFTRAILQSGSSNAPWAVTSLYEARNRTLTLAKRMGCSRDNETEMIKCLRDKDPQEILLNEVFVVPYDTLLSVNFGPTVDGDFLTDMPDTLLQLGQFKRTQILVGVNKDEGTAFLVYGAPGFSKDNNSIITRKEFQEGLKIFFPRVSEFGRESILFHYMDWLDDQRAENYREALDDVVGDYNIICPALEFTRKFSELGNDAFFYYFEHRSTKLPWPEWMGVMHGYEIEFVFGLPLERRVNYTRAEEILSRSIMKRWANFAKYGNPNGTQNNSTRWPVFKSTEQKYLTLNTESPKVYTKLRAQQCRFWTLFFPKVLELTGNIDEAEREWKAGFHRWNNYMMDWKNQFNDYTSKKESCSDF
Acetylcholinesterase, sequence (O42275 whole entry): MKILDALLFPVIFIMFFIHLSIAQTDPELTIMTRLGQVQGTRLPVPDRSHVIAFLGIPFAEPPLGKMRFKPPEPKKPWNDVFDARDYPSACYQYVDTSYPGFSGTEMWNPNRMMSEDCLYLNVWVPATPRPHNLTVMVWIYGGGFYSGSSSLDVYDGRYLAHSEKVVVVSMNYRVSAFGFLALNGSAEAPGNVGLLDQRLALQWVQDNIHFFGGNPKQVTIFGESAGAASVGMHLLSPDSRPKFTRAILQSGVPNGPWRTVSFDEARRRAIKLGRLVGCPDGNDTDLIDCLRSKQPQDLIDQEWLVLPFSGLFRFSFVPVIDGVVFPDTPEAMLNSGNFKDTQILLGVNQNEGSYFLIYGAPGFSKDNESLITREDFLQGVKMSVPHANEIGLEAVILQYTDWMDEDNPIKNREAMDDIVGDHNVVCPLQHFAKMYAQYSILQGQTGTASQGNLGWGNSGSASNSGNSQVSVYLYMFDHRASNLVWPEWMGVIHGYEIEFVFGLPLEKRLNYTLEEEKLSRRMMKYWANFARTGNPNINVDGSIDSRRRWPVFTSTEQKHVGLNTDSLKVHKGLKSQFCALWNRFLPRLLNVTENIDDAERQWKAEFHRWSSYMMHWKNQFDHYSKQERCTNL
Cholinesterase (Equus caballus), sequence (P81908 whole entry): as the sequence (P81908 whole entry) above

On to `CC(C(=O)NCCCCNc1c2c(nc3ccccc13)CCCC2)c1ccc(-c2ccc(OCCCO[N+](=O)[O-])cc2)c(F)c1` (stereo unspecified), for which the half-inhibitory concentration (IC50) is 261 nM in assay [1] and 10.6 nM in assay [2].

For `CC(C(=O)NCCNc1c2c(nc3ccccc13)CCCC2)c1ccc(-c2ccc(OCCO[N+](=O)[O-])cc2)c(F)c1` (stereo unspecified), the half-inhibitory concentration (IC50) in assay [1] amounted to 183 nM; in assay [2] it was 9.9 nM.

On to `CC(C(=O)NCCNc1c2c(nc3ccccc13)CCCC2)c1ccc(-c2ccccc2)c(F)c1` (stereo unspecified), for which the 50% inhibitory concentration (IC50) in assay [1] stood at 715 nM; in assay [2] it was 58.7 nM.

With `CC(C(=O)NCCCNc1c2c(nc3ccccc13)CCCC2)c1ccc(-c2ccccc2)c(F)c1` (stereo unspecified), the half-inhibitory concentration (IC50) was found to be 345 nM in assay [1] and 13.9 nM in assay [2].

With `CC(C(=O)NCCNc1c2c(nc3ccccc13)CCCC2)c1ccc(-c2ccc(OCCCCCCO[N+](=O)[O-])cc2)c(F)c1` (stereo unspecified), the half-inhibitory concentration (IC50) in assay [1] came out at 4310 nM; in assay [2], 7.6 nM. The inhibition entry in assay [3] was “Active”.

For `CC(C(=O)NCCCCNc1c2c(nc3ccccc13)CCCC2)c1ccc(-c2ccc(OCCCCO[N+](=O)[O-])cc2)c(F)c1` (stereo unspecified), the IC50 came out at 641 nM in assay [1] and 7.7 nM in assay [2].

Consider `CC(C(=O)NCCCNc1c2c(nc3ccccc13)CCCC2)c1ccc(-c2ccc(OCCCO[N+](=O)[O-])cc2)c(F)c1` (stereo unspecified), for which the concentration for half-maximal inhibition (IC50) was found to be 189 nM in assay [1] and 8.6 nM in assay [2].

`CC(C(=O)NCCCCNc1c2c(nc3ccccc13)CCCC2)c1ccc(-c2ccccc2)c(F)c1` (stereo unspecified): the IC50 in assay [1] came to 193 nM; in assay [2] it was 11 nM.

Take `CC(C(=O)NCCCNc1c2c(nc3ccccc13)CCCC2)c1ccc(-c2ccc(OCCCCO[N+](=O)[O-])cc2)c(F)c1` (stereo unspecified): the figures for the IC50 in assay [1] and in assay [2] were 357 nM and 7.9 nM, respectively.

Regarding `CC(C(=O)NCCNc1c2c(nc3ccccc13)CCCC2)c1ccc(-c2ccc(OCCCCO[N+](=O)[O-])cc2)c(F)c1` (stereo unspecified), the 50% inhibitory concentration (IC50) in assay [1] came out at 1350 nM; in assay [2], 10.1 nM.

Regarding `CC(C(=O)NCCCNc1c2c(nc3ccccc13)CCCC2)c1ccc(-c2ccc(OCCCCCCO[N+](=O)[O-])cc2)c(F)c1` (stereo unspecified), the results for the IC50 in assay [1] and in assay [2] were 1010 nM and 8.1 nM, respectively.

Turning to `CC(C(=O)NCCNc1c2c(nc3ccccc13)CCCC2)c1ccc(-c2ccc(OCCCO[N+](=O)[O-])cc2)c(F)c1` (stereo unspecified), the IC50 in assay [1] came out at 341 nM; in assay [2] it was 10 nM.

Take `CC(C(=O)NCCCCNc1c2c(nc3ccccc13)CCCC2)c1ccc(-c2ccc(OCCCCCCO[N+](=O)[O-])cc2)c(F)c1` (stereo unspecified): the figures for the IC50 in assay [1] and in assay [2] were 1460 nM and 3.9 nM, respectively.

As to `CC(C(=O)NCCCNc1c2c(nc3ccccc13)CCCC2)c1ccc(-c2ccc(OCCO[N+](=O)[O-])cc2)c(F)c1` (stereo unspecified), the IC50 was 112 nM in assay [1] and 8.1 nM in assay [2].

As to `CC(C(=O)NCCCCNc1c2c(nc3ccccc13)CCCC2)c1ccc(-c2ccc(OCCO[N+](=O)[O-])cc2)c(F)c1` (stereo unspecified), the IC50 in assay [1] was 227 nM; in assay [2] it was 13.9 nM.

Source of the values: ChEMBL document CHEMBL2380311 (Bioorg Med Chem Lett, 2013).
